Reference: publication PMC8245773, “Brevibacillin 2V, a Novel Antimicrobial Lipopeptide With an Exceptionally Low Hemolytic Activity” (Frontiers in Microbiology, 2021)
Where two headings read alike, the source gives them in different places. *1 amine or outer side, *2 acyl side, *3 side chain or, on linkers, in order; H or OH if unused. Where a SMILES comes first, the peptide text is derived from it. [ ]: non-standard residue; d: D form. The star is where a group is joined. X2 = CC=C(N[*:1])C(=O)[*:2]; dOrn = NCCC[C@@H](N)C(=O)O; Valol = CC(C)[C@@H](CO)N*; X1 = CCC(C)C(O)C(=O)*

Key:
[1] = system: HepG2 cells; conditions: for HepG2 CC50: 24 h
Procedure: The cytotoxicity of brevibacillins was evaluated on HepG2 cells by using the XTT (Cell Proliferation Kit XTT, AppliChem) assay ([Roehm et al., 1991]). HepG2 cells [in Dulbecco’s modified Eagle’s medium (DMEM) supplemented with 10% fetal bovine serum] were seeded into 96-well plates and incubated at 37°C with 5% CO2. After 24 h, the medium was replaced with a fresh medium (DMEM with 2% FBS, 100 μl per well) containing different concentrations of brevibacillins ([Zhao et al., 2017]). After 24 h of incubation, the XTT reagent was added to the cultures according to the manufacturer’s instructions, and the plates were incubated at 37°C for 2 h with 5% CO2. Subsequently, the absorbance values were measured by using a Varioskan^TM LUX multimode microplate reader (Thermo Fisher Scientific) at 485 nm (reference, 690 nm). The 50% cell toxicity (CC50) of peptides was calculated as described in a previous study ([Reed and Muench, 1938]).
(§1) GraphPad Prism 7.0 was used to fit the data of hemolytic assay and cytotoxicity assay in Figure 3. The experiments were conducted in triplicate, and data are presented as the mean value of triplicate experiments. Data Explorer Software was used to analyze the MALDI-TOF data; Thermo Scientific Xcalibur software was used to analyze the LC–MS/MS data. The statistical significance of the data was assessed using Duncan’s multiple-range test with the software SPSS Statistics 19.0. P-values less than 0.05 were considered to be statistically significant.

[2] = system: human erythrocytes; assay: Hemolytic activity
Procedure: This assay was performed as per the method described in previous studies ([Ling et al., 2015]; [Li et al., 2018]). Briefly, erythrocytes were isolated from a healthy human volunteer donor (ordered from Sanquin, Netherlands^1) and washed with phosphate-buffered saline (PBS) three times. After that, peptides were added at final concentrations of 128, 64, 32, 16, 8, 4, 2, 1, and 0 mg/L in PBS containing 2% (v/v) erythrocytes. The cells were incubated at 37°C for 1 h and centrifuged for 5 min at 8,000 g. The supernatant was transferred to a 96-well plate, and the absorbance was measured at a wavelength of 450 nm with a Thermo Scientific Varioskan^TM LUX multimode microplate reader. The absorbance relative to the positive control, which was treated with 10% Triton X-100, was defined as the percentage of hemolysis. The 50% human blood cell hemolysis concentration (HC50) of peptides was calculated as described in previous studies ([Reed and Muench, 1938]).
as §1

[3] = cited from earlier work
Procedure: For cytotoxicity assays, HepG2 cells were incubated in the presence of brevibacillin concentrations ranging from 2 to 64 mg/L. After 24 h of incubation, cell viability was determined using an XTT kit.

## CC=C(NC(=O)C(O)C(C)CC)C(=O)N[C@@H](CC(C)C)C(=O)N[C@H](CCCN)C(=O)N[C@H](C(=O)N[C@H](C(=O)N[C@H](C(=O)N[C@H](CCCCN)C(=O)N[C@H](C(=O)N[C@H](C(=O)N[C@@H](CCCCN)C(=O)N[C@H](Cc1ccc(O)cc1)C(=O)N[C@@H](CC(C)C)C(=O)N[C@H](CO)C(C)C)C(C)C)C(C)C)C(C)C)C(C)C)[C@@H](C)CC (stereo partly drawn) [brevibacillin V] (X1-[X2]L[dOrn]IVV[dK]VVK[dY]L-Valol)
[1]
  CC50 (HepG2) relative to MIC values against bacterial pathogens: 2.5- to fivefold
  cytotoxicity to HepG2 cells at 16 mg/L: all of the HepG2 cells were killed
  HepG2 CC50: 9.89 ± 0.67 µg/mL
[2]
  hemolytic activity at 128 mg/L: completely lysed
[2]; 1 h
  HC50 (concentration that causes 50% hemolysis of human red blood cells): 73.1 ± 1.4 mg/L

## CC=C(NC(=O)C(O)C(C)CC)C(=O)N[C@@H](CC(C)C)C(=O)N[C@H](CCCN)C(=O)N[C@H](C(=O)N[C@H](C(=O)N[C@H](C(=O)N[C@H](CCCCN)C(=O)N[C@H](C(=O)N[C@H](C(=O)N[C@@H](CCCCN)C(=O)N[C@H](Cc1ccc(O)cc1)C(=O)N[C@@H](CC(C)C)C(=O)N[C@H](CO)C(C)C)C(C)C)C(C)C)C(C)C)C(C)C)C(C)C (stereo partly drawn) [brevibacillin 2V] (X1-[X2]L[dOrn]VVV[dK]VVK[dY]L-Valol)
[1]
  CC50 (HepG2) relative to MIC values against bacterial pathogens: 23 fold
  cytotoxicity to HepG2 cells at 32 mg/L: no cytotoxicity
  HepG2 CC50: 45.49 ± 0.24 µg/mL
[2]; 128 mg/L, human erythrocytes, 37°C, 1 h
  hemolytic activity at 128 mg/L: No hemolytic activity
[2]; 1 h
  HC50 (concentration that causes 50% hemolysis of human red blood cells): > 128 mg/L

## CC=C(NC(=O)C(O)C(C)CC)C(=O)N[C@@H](CC(C)C)C(=O)N[C@H](CCCN)C(=O)N[C@H](C(=O)N[C@H](C(=O)N[C@H](C(=O)N[C@H](CCCCN)C(=O)N[C@H](C(=O)N[C@H](C(=O)N[C@@H](CCCCN)C(=O)N[C@H](Cc1ccc(O)cc1)C(=O)N[C@@H](CC(C)C)C(=O)N[C@H](CO)C(C)C)C(C)C)[C@@H](C)CC)C(C)C)[C@@H](C)CC)[C@@H](C)CC (stereo partly drawn) [brevibacillin I] (X1-[X2]L[dOrn]IIV[dK]IVK[dY]L-Valol)
[1]
  CC50 (HepG2) relative to MIC values against bacterial pathogens: 2.5- to fivefold
  cytotoxicity to HepG2 cells at 16 mg/L: all of the HepG2 cells were killed
  HepG2 CC50: 7.38 ± 0.30 µg/mL
[2]
  hemolytic activity at 64 mg/L: completely lysed

## bogorol
[3]
  CC50: below 8 mg/L

## CC=C(NC(=O)C(O)C(C)CC)C(=O)N[C@@H](CC(C)C)C(=O)N[C@H](CCCN)C(=O)N[C@H](C(=O)N[C@H](C(=O)N[C@H](C(=O)N[C@H](CCCCN)C(=O)N[C@H](C(=O)N[C@H](C(=O)N[C@@H](CCCCN)C(=O)N[C@H](Cc1ccc(O)cc1)C(=O)N[C@@H](CC(C)C)C(=O)N[C@H](CO)C(C)C)C(C)C)C(C)C)C(C)C)[C@@H](C)CC)[C@@H](C)CC (stereo partly drawn) [brevibacillin] (X1-[X2]L[dOrn]IIV[dK]VVK[dY]L-Valol)
[1]
  CC50 (HepG2) relative to MIC values against bacterial pathogens: 2.5- to fivefold
  cytotoxicity to HepG2 cells at 16 mg/L: all of the HepG2 cells were killed
  HepG2 CC50: 5.21 ± 0.01 µg/mL
[2]
  hemolytic activity at 64 mg/L: completely lysed
[2]; 1 h
  HC50 (concentration that causes 50% hemolysis of human red blood cells): 25.1 ± 0.1 mg/L
